Measurements as given in patent publication US4632978A, “6-serine, des-19-leucine calcitonin” (Armour Pharmaceutical Corp., priority 1985, dated 1986).
Bridge positions count the residues as written; N and C are the ends. Ends that are not written are not given here.

Experiments:
[1] = test system: serum calcium concentration; assay: Biological assay of calcitonin analogs in vivo: reduction of serum calcium concentration, 2×2 parallel line assay against synthetic salmon calcitonin standard; conditions: rats, subcutaneous injection, blood withdrawn 1 hour later, vs synthetic salmon calcitonin standard
Procedure: Biological Assay Of Calcitonin Analogs In Vivo
The biological potency of Ser^6, des-Leu^19 -salmon calcitonin was determined by comparing the reduction of serum calcium concentration which followed administration by graded doses of Ser^6, des-Leu^19 SCT and synthetic salmon calcitonin standard. Rats were divided into four groups of seven animals, and each group was assigned at random to a dose of standard or test solution. Low and high doses where chosen from the linear portion of the dose-response curve. For the salmon calcitonin standard, the values were 0.7 and 2.1 ng. peptide/100 g. body weight (BW). This dose approximates 3 and 9 MU/100 g. BW. Peptides were given by subcutaneous injection (0.2 ml/100 g. BW) and blood was withdrawn 1 hour later for serum calcium determination. Sera are processed and analyzed within two hours of collection. […]. Results were analyzed by a 2×2 parallel line assay [Gaddum, J. H., J. Pharm. Pharmacol., 5, 345 (1953)]. The standard salmon calcitonin used was independently determined to contain greater than 4,000 IU/mg. Ser^6,des-Leu^19 -SCT assayed at 8400 IU/mg.

[2] = literature values, Monikawa et al.; cited from earlier work

Substance | biological potency (reduction of serum calcium concentration) [1] | hypocalcemic potency [2]
6-serine, des-19-leucine-salmon calcitonin [Ser^6,des-Leu^19 -SCT] | 8400 IU/mg | 
(1,7-α-L-aminosuberic acid)eel calcitonin |  | about 3400 IU/mg
eel calcitonin (CSNLSTCVLGKLSQELHKLQTYPRTDVGAGTP-NH2; disulfide 1-7; ends not checked; UniProt P01262 1-32, looked up) [synthetic eel calcitonin, synthetic eel calcitonin from Monikawa et al] |  | around 4300 IU/mg
